The values below come from US20230338316A1, “ABBAPOLINS AS INHIBITORS AND DEGRADERS OF POLO-LIKE KINASES” (UNIVERSITY OF SOUTH CAROLINA, priority 2022, published 2023).

One experiment concerns the target T1, PLK1 PBD (367-603) (Homo sapiens, UniProt P53350).
T1 construct: PLK1 PBD (367-603) and PLK3 PBD (335-646) proteins were obtained from BPS Biosciences Inc; purchased BPS Biosciences Inc. (San Diego, CA)
Briefly: Fluorescence polarization assay, PLK1 PBD. The format is binding. To be noted: for IC50: fluorescence polarization, read-out: PLK1 PBD IC50. How it is done: (§1) Materials were dissolved in DMSO (10 mM) and diluted from 10 nM to 600 μM (maximum of 6% DMSO tolerance in the assay). PLK1 PBD (367-603) and PLK3 PBD (335-646) proteins were obtained from BPS Biosciences Inc. (San Diego, CA); 17 ng PLK1 and 156 ng PLK3 were used per reaction. The fluorescein-tracer phospho-peptides (MAGPMQS[pT]PLNGAKK (SEQ ID NO: 1) for PLK1, and GPLATS[pT]PKNG (SEQ ID NO: 2) for PLK3) were used at a final concentration of 10 nM. Incubation was carried out at room temperature for 45 minutes. Fluorescence was measured using a DTX 880 plate reader and Multimode Analysis software (Beckman Coulter, Brea, CA). The polarization values in millipolarization (mP) units were measured at an excitation wavelength of 488 nm and an emission wavelength of 535 nm. Each data point was performed in triplicate for every experiment, and experiments were performed at least three times. An IC50 value for each compound was calculated from linear regression analysis of the plots.

For experiment [1], the system named is PC3 prostate cancer cells. Put plainly: MTT cell viability assay, PC3. Type of experiment: cell-based. The note with it: for IC50: MTT. The protocol: PC3 prostate cancer cells were maintained in DMEM (Invitrogen™, Carlsebad, CA) supplemented with 10% FBS or Corning® Nu-serum™(BD™ Biosciences, Franklin Lakes, NJ) and 1% penicillin/streptomycin (Invitrogen™) in a humidified incubator and 5% CO2 at 37° C.
Exponentially growing cells were plated in 96-well dishes. Dose response curves were used to treat cells for 72 hours with inhibitors. Following the three-day treatment, cell viability was measured using the MTT (3-(4,5-dimethylthiazol-2-yl)-2,5-diphenyltetrazolium bromide) colorimetric assay. Cells were incubated for 3 hours with MTT allowing viable cells to metabolize the tetrazolium dye to a purple colored solution. Absorbance measurements (595 nm) were quantified using a DTX 880 plate reader and IC50 values were generated for FLIPs.

The next experiment addresses T2, PLK3 PBD (335-646) (Homo sapiens, UniProt Q9H4B4).
T2 construct: PLK1 PBD (367-603) and PLK3 PBD (335-646) proteins were obtained from BPS Biosciences Inc; purchased BPS Biosciences Inc. (San Diego, CA)
T2 sequence (Q9H4B4 335-646): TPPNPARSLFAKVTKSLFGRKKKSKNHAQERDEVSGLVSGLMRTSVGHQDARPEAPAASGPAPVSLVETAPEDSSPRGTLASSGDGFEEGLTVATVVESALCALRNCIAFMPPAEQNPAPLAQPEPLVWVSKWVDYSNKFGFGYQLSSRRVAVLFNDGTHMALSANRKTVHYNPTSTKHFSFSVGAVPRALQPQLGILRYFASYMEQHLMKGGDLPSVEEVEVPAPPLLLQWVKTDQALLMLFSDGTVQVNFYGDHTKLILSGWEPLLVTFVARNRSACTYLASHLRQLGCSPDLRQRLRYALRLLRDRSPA
Briefly: Fluorescence polarization assay, PLK3 PBD. Type of experiment: binding. How it is done:
as §1

For experiment [2], the target named is T3, PLK1 (Homo sapiens, UniProt P53350). Briefly: PLK1 degradation in PC3 cells. The note with it: PC3 cell line, 24 hours. Type of experiment: cell-based. Details: endogenous in cells; host or cells: PC3 prostate cancer cells. How it is done:
(§2) For example, PC3 cells were treated with varying dosages of abbapolin 6369, and percent of PLK1 degradation was measured at 24 hours (FIGS. 8A-8B). HeLa cells were treated with 25 μM abbapolin 6369, and time points shown in the assay were 24 hours, 48 hours, and 72 hours (FIGS. 9A-9B). PC3 cells were treated with varying dosages of abbapolin 6329, and percent of PLK1 degradation was measured at 24 hours (FIGS. […]). HeLa cells were treated with varying dosages of abbapolin 6329, and time points shown in the assay were 24 hours, 48 hours, and 72 hours (FIGS. 11A-11B).

The target in experiment [3] is T3, PLK1. Put plainly: PLK1 degradation in HeLa cells. Details: endogenous in cells. To be noted: HeLa cell line, 24, 48 and 72 hours. The format is cell-based. How it is done: as §2
Experiment [4] concerns the target T3, PLK1. Put plainly: Cellular thermal shift assay (CETSA). Type of experiment: cell-based. The arrangement: endogenous in cells; host or cells: PC3 prostate cancer cells. To be noted: intracellular PLK1. How it is done:
Cellular thermal shift assay (CETSA) was performed with PC3 cells cultured in RPMI medium supplemented with 10% FBS. For an initial determination of the melting profile of PLK1 AND PLK3, cells dispensed into 96-well PCR plates in the above medium (6000 cells/well in 50 μL) were subjected to temperature gradient (38-60° C.) for 10 min. […] Centrifugation was performed at 14000 rpm to sediment the denatured protein content. Supernatant was collected and subjected to SDS-PAGE, and immunodetection was performed using anti-PLK1 and anti-PLK3 antibodies. PLK1 and PLK3 bands were quantified on a LI-COR C-Digit Blot Scanner, and Tagg and Tagg values were calculated for both proteins. In subsequent experiments, cells were treated at increasing doses (3.0, 1.0, 0.3, 0.1, 0.03 μM) of inhibitors together with DMSO control, for 2 h. Cells were then subjected to heat shock at Tagg for 10 min, and unstable protein was removed by centrifugation step. Following immuno-blotting, bands of stable PLK1 and PLK3 were quantified, normalized to loading control and plotted using GraphPad Prism software. EC50 values for inhibitors were calculated. […] The EC50 of the peptides were determined from the curve fit of the dose response.

A further experiment deals with SF-295. Put plainly: Single dose cell viability assay, SF-295. Type of experiment: cell-based. To be noted: SF-295 (CNS), single dose 25 μM. How it is done:
(§3) Lead abbapolin compounds were tested in multiple cancer cell lines, including non-small cell lung cancer (NSCLC) cells, melanoma cells, colon cancer cells, central nervous system (CNS) cancer cells, prostate cancer cells, renal cancer cells, and breast cancer cells. Each of these cancer cells lines were sensitive to the lead abbapolin compounds in a cell viability assay, including 6184 (Table 3), 6277 (Table 4), 6279 (Table 5), 6355 (Table 6), 6359 (Table 7), 6369 (Table 8), and 6421 (Table 9).

The next experiment has as its system HOP-92. Briefly: Single dose cell viability assay, HOP-92. Type of experiment: cell-based. To be noted: HOP-92 (NSCLC). The protocol:
as §3

The test system of the next experiment is RPMI-8226. Briefly: Single dose cell viability assay, RPMI-8226. The format is cell-based. The note with it: RPMI-8226 (Leukemia), single dose 25 μM. The protocol:
as §3

The next experiment concerns NCI-H522. Briefly: Single dose cell viability assay, NCI-H522. The format is cell-based. To be noted: NCI-H522 (NSCLC), single dose 25 μM. How it is done:
as §3

The test system of a further experiment is UACC-62. Briefly: Single dose cell viability assay, UACC-62. The format is cell-based. To be noted: UACC-62 (Melanoma), single dose 25 μM. The protocol:
as §3

Another experiment deals with SK-MEL-2. Briefly: Single dose cell viability assay, SK-MEL-2. Type of experiment: cell-based. The note with it: SK-MEL-2 (Melanoma), single dose 25 μM. How it is done: as §3
The test system of a further experiment is U251. Briefly: Single dose cell viability assay, U251. Type of experiment: cell-based. The note with it: U251 (CNS), single dose 25 μM. How it is done: as §3
A further experiment concerns CCRF-CEM. Put plainly: Single dose cell viability assay, CCRF-CEM. The note with it: CCRF-CEM (Leukemia), single dose 25 μM. The format is cell-based. The protocol: as §3
A further experiment relates to MDA-MB-468. Put plainly: Single dose cell viability assay, MDA-MB-468. Type of experiment: cell-based. The note with it: MDA-MB-468 (Breast), single dose 25 μM. How it is done:
as §3

For a further experiment, the system named is HCT-15. Put plainly: Single dose cell viability assay, HCT-15. The format is cell-based. The note with it: HCT-15 (Colon), single dose 25 μM. The protocol: as §3
The next experiment deals with SK-MEL-5. Briefly: Single dose cell viability assay, SK-MEL-5. The format is cell-based. The note with it: SK-MEL-5 (Melanoma), single dose 25 μM. The protocol: as §3

T1 sequence (P53350 367-603): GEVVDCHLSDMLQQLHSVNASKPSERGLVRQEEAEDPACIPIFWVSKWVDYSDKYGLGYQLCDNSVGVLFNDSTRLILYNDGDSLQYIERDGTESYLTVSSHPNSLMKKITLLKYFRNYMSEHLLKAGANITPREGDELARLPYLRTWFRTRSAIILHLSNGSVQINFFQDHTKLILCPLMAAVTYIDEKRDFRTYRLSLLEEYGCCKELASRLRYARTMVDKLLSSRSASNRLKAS
T3 sequence (P53350 whole entry): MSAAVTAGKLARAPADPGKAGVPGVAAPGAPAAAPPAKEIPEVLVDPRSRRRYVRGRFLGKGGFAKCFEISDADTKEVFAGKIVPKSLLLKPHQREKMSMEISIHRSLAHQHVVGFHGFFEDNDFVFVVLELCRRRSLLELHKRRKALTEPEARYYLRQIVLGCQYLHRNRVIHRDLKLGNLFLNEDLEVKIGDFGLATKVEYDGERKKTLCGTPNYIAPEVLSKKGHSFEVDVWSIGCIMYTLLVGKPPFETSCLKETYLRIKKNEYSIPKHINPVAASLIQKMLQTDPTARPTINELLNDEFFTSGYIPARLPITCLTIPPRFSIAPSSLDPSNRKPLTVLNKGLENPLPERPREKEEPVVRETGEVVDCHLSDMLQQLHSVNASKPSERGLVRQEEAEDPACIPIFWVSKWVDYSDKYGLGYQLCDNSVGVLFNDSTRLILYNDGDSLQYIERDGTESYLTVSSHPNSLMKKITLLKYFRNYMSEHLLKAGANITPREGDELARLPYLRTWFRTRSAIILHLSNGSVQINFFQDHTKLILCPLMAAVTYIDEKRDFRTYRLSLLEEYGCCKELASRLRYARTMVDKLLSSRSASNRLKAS

On to `CCCCCCCCc1ccc(C(=O)Nc2ccc(C)cc2C(=O)O)cc1OC` [compound 6280], for which the IC50 at PLK1 PBD (367-603) is over 100 µM; in experiment [1] (72 h), 25.9 µM; in experiment [1] (72 hours), 18.3 µM; at PLK3 PBD (335-646), over 200 µM.

For `Cc1ccc(C(=O)O)c(NC(=O)c2ccc(N)cc2)c1` [compound 6154], the figures for the IC50 (on PLK1 PBD (367-603); in experiment [1] (72 h)) were over 600 µM and over 120 µM, respectively.

As to `CCCCCCCCc1ccc(C(=O)Nc2cccc(CP(=O)(O)O)c2)cc1` [compound 6195], the IC50 on PLK1 PBD (367-603) is 51.5 µM; in experiment [1] (72 h), 20.4 ± 4.4 µM.

For the compound `CCCCCCCCN(C)c1ccc(C(=O)Nc2ccc(C)cc2C(=O)O)cc1` [compound 6172], the concentration for half-maximal inhibition (IC50) at PLK1 PBD (367-603) was over 600 µM; in experiment [1] (72 h), 28 µM.

Take `Cc1ccc(NC(=O)c2ccc(OCCCCCCCCCCCNC(=O)CCCC(=O)Nc3cccc4c3C(=O)N(C3CCC(=O)NC3=O)C4=O)cc2)c(C(=O)O)c1` (stereo not shown) [compound 6329]: the PLK1 degradation entry on PLK1 [2] and on PLK1 [3] was “degradation of PLK1” throughout.

For `CCCCCCCCc1ccc(C(=O)Nc2ccccc2P(=O)(O)O)cc1` [compound 6286], the values for the IC50 (at PLK1 PBD (367-603); in [1] (72 h); in experiment [1] (72 hours)) were 53 µM, 26.6 µM and 25.1 µM, respectively.

Take `CCCCCCCCc1cccc(C(=O)Nc2ccc(C)cc2C(=O)O)c1` [compound 6281]: the half-inhibitory concentration (IC50) on PLK1 PBD (367-603) came to 19.5 µM.

Take `CC[C@@H]1C(=O)N(C)c2cnc(Nc3ccc(C(=O)N[C@H]4CC[C@H](N5CCN(CC6CC6)CC5)CC4)cc3OC)nc2N1C(C)C` [volasertib, reference compound]: the “PLK1 thermal stability by CETSA” value at PLK1 [4] was “decreased the stability of PLK1”.

Turning to `CCCCCCCOc1cccc(S(=O)(=O)Nc2ccc(C)cc2C(=O)O)c1` [compound 6355], the “Cells Remaining (%)” value is given as 59.2% in the experiment on SF-295; 57.02% with HOP-92 (single dose 25 μM); 51.41% in the experiment with RPMI-8226; 65.09% with NCI-H522; 61.59% with UACC-62; 30.01% in the experiment with SK-MEL-2. The “Cells Remaining (%)” value is 64.99% in the experiment with U251; 67.09% in the experiment with CCRF-CEM; 55.12% in the experiment on MDA-MB-468; 49.94% in the experiment with HCT-15; 59.55% with SK-MEL-5.

Take `CCCCCCCCc1ccc(C(=O)Nc2ccc(C(F)(F)F)cc2C(=O)O)cc1` [compound 6165]: the IC50 at PLK1 PBD (367-603) was 23.5 ± 4.9 µM; in [1] (72 h), 14.2 ± 2 µM; against PLK3 PBD (335-646), 37.6 ± 5.7 µM.

In the case of `CCCCCCCCc1ccc(C(=O)Nc2ccc(C)cc2C(=O)O)cc1C` [compound 6282], at PLK1 PBD (367-603), the IC50 was 21 µM.

Take `CCCCCCCCc1ccc(C(=O)Nc2cccc(P(=O)(O)O)c2)cc1` [compound 6287]: the IC50 at PLK1 PBD (367-603) amounted to 80.8 µM. Moreover, the PC3 % inhi. in experiment [1] (at 100 μM) stood at 50% inhi. at.

For `CCCCCCNC(=O)c1ccc(C(=O)Nc2ccc(C)cc2C(=O)O)cc1` [compound 6189], the “PLK1 PBD % inhi.” value at PLK1 PBD (367-603) (at 400 μM) was 37% inhi. at.

`CCCCCCCCc1ccc(C(=O)Nc2ccccc2CP(=O)(O)O)cc1` [compound 6184]: in the experiment with HOP-92 (single dose 10 μM), the “Cells Remaining (%)” value came out at 43.86%. Besides, the IC50 at PLK1 PBD (367-603) worked out at 95.3 µM; in experiment [1] (72 h), 9.2 µM.

On to `CCCCCCCCN(C)c1ccc(C(=O)Nc2cc(C)ccc2C(=O)O)cc1` [compound 6171], for which the IC50 on PLK1 PBD (367-603) is over 600 µM; in [1] (72 h), 27.3 µM.

Turning to `Cc1ccc(NC(=O)c2ccc(N)cc2)c(C(=O)O)c1` [compound 6153], the IC50 on PLK1 PBD (367-603) is over 600 µM; in experiment [1] (72 h) it was over 120 µM; at PLK3 PBD (335-646), over 600 µM.
